This note sets out measurements from PubChem BioAssay AID330 (DTP/NCI, 2004).

In this assay the test system is P388 leukemia ip, CD2F1 mice, survival T/C. Kind of assay: NCI In Vivo Anticancer Drug Screen. Data for tumor model P388 Leukemia (intraperitoneal) in CD2F1 (CDF1) mice. As to conditions: endpoint: median survival time, higher = longer survival. An outline of the steps: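 Mice carrying the transplanted tumor received test compound or vehicle. Survival was recorded in each group, and the value is the treated-group measurement divided by that of the vehicle-treated control group.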

Where [1] appears, read: dose: 60.0 mg/kg/injection, schedule: Q01DX005 (ip), vehicle: saline with Tween-80.
Where [2] appears, read: dose: 120.0 mg/kg/injection, schedule: Q01DX005 (ip), vehicle: saline with Tween-80.
[3] abbreviates: dose: 100.0 mg/kg/injection, schedule: Q01DX009 (ip), vehicle: saline with Tween-80.
[4] abbreviates: dose: 200.0 mg/kg/injection, schedule: Q01DX009 (ip), vehicle: saline with Tween-80.
The mark [5] stands for this setting: dose: 60.0 mg/kg/injection, schedule: Q01DX005 (ip), vehicle: Klucel (hydroxypropylcellulose) (HPC).
Setting [6] is: dose: 120.0 mg/kg/injection, schedule: Q01DX005 (ip), vehicle: Klucel (hydroxypropylcellulose) (HPC).
[7] abbreviates: dose: 240.0 mg/kg/injection, schedule: Q01DX005 (ip), vehicle: Klucel (hydroxypropylcellulose) (HPC).
The mark [8] stands for this setting: dose: 15.0 mg/kg/injection, schedule: Q01DX005 (ip), vehicle: saline with Tween-80.
Where [9] appears, read: dose: 30.0 mg/kg/injection, schedule: Q01DX005 (ip), vehicle: saline with Tween-80.
The mark [10] stands for this setting: dose: 50.0 mg/kg/injection, schedule: Q01DX005 (ip), vehicle: Klucel (hydroxypropylcellulose) (HPC).
Where [11] appears, read: dose: 100.0 mg/kg/injection, schedule: Q01DX005 (ip), vehicle: Klucel (hydroxypropylcellulose) (HPC).
The mark [12] stands for this setting: dose: 100.0 mg/kg/injection, schedule: Q01DX001 (ip), vehicle: Klucel (hydroxypropylcellulose) (HPC).
[13] abbreviates: dose: 200.0 mg/kg/injection, schedule: Q01DX001 (ip), vehicle: Klucel (hydroxypropylcellulose) (HPC).
Where [14] appears, read: dose: 240.0 mg/kg/injection, schedule: Q01DX005 (ip), vehicle: saline with Tween-80.

Structures are written as SMILES. “And” between values parts separate entries of the source, which are not always exact repeats. Equal entries are not always repeated. Toxic doses and inconclusive results are not listed.

As for `Nc1ccc(S(=O)(=O)Nc2nc(-c3ccccc3)cc(-c3ccccc3O)n2)cc1`, the T/C is, setting by setting: under setting [1], 96 % of control; under setting [2], 96 % of control.
`OC(CN1CCCC2CCCCC21)c1cc2ccccc2c2ccccc12` (stereo unspecified): the T/C is, setting by setting: under setting [3], 108 % of control; under setting [4], 104 % of control.
As for `CCOC(=O)c1nnn(-c2cncc(-n3nnc(C(=O)OCC)c3C(=O)OCC)n2)c1C(=O)OCC`, the T/C was 98 % of control under setting [5], 102 % of control under setting [6] and 103 % of control under setting [7].
In the case of `O=C(/C=C/c1ccc([N+](=O)[O-])cc1)NN=C(c1ccccc1)c1ccccc1`, the T/C (dose: 50.0 mg/kg/injection, schedule: Q01DX009 (ip), vehicle: saline with Tween-80) is 106 % of control and 96 % of control; the T/C under setting [3] was 99 % of control and 91 % of control; the T/C under setting [4] is 98 % of control; the T/C (dose: 400.0 mg/kg/injection, schedule: Q01DX009 (ip), vehicle: saline with Tween-80) was 99 % of control.
Take `Fc1ccccc1C(Nc1nncs1)Nc1nncs1`: the T/C was 95 % of control under setting [8]; 94 % of control under setting [9]; 102 % of control and 104 % of control under setting [1].
For `O=C1Nc2ccccc2NC(=O)C1(O)O`, the T/C is, setting by setting: under setting [10], 100 % of control; under setting [11], 101 % of control; (dose: 200.0 mg/kg/injection, schedule: Q01DX005 (ip), vehicle: Klucel (hydroxypropylcellulose) (HPC)) 101 % of control.
On to `N#CCCN1C(=O)C2(CCC#N)CCCCC2(O)N=C1c1ccccc1` (stereo unspecified), for which the T/C reads like this: under setting [5], 92 % of control; under setting [6], 94 % of control; under setting [7], 92 % of control.
`CCCNC(=O)/C(C)=C(\C)c1ccccc1`: the T/C is 100 % of control (dose: 50.0 mg/kg/injection, schedule: Q04DX003 (ip), vehicle: Klucel (hydroxypropylcellulose) (HPC)); 99 % of control (dose: 100.0 mg/kg/injection, schedule: Q04DX003 (ip), vehicle: Klucel (hydroxypropylcellulose) (HPC)); 100 % of control (dose: 200.0 mg/kg/injection, schedule: Q04DX003 (ip), vehicle: Klucel (hydroxypropylcellulose) (HPC)).
With `O=C1/C(=C\c2ccccc2)C2OCC=C3CN4CCC56c7ccccc7N1C5C2C3CC46` (stereo unspecified), the T/C was 106 % of control (dose: 7.5 mg/kg/injection, schedule: Q01DX005 (ip), vehicle: saline with Tween-80); 108 % of control under setting [8]; 99 % of control under setting [9].
For `BrCCc1ccc2ccccc2c1Br`, the T/C runs as follows: (dose: 50.0 mg/kg/injection, schedule: Q01DX005 (ip), vehicle: distilled water + Tween-80 + alcohol) 111 % of control; (dose: 100.0 mg/kg/injection, schedule: Q01DX005 (ip), vehicle: distilled water + Tween-80 + alcohol) 109 % of control; (dose: 200.0 mg/kg/injection, schedule: Q01DX005 (ip), vehicle: distilled water + Tween-80 + alcohol) 105 % of control.
In the case of `Cc1ccc(S(=O)(=O)N/N=C/c2c(Cl)n(C)c3ccccc23)cc1`, the T/C by setting is: under setting [12], 91 % of control; under setting [13], 97 % of control; (dose: 400.0 mg/kg/injection, schedule: Q01DX001 (ip), vehicle: Klucel (hydroxypropylcellulose) (HPC)) 100 % of control.
Take `NC(=O)c1ccccc1N1CCCCC1`: the T/C is 99 % of control (dose: 50.0 mg/kg/injection, schedule: Q01DX005 (ip), vehicle: saline with Tween-80); 100 % of control (dose: 100.0 mg/kg/injection, schedule: Q01DX005 (ip), vehicle: saline with Tween-80); 91 % of control (dose: 200.0 mg/kg/injection, schedule: Q01DX005 (ip), vehicle: saline with Tween-80).
`COc1cccc(CN2CCN(N)CC2)c1`: the T/C is, setting by setting: (dose: 12.5 mg/kg/injection, schedule: Q01DX005 (ip), vehicle: Klucel (hydroxypropylcellulose) (HPC)) 100 % of control; (dose: 25.0 mg/kg/injection, schedule: Q01DX005 (ip), vehicle: Klucel (hydroxypropylcellulose) (HPC)) 104 % of control; under setting [10], 107 % of control; under setting [11], 100 % of control.
As for `CC1=C(C)C(C#N)N(C)CC1` (stereo unspecified), the T/C (dose: 3.75 mg/kg/injection, schedule: Q01DX005 (ip), vehicle: Klucel (hydroxypropylcellulose) (HPC)) was 102 % of control and the T/C (dose: 7.5 mg/kg/injection, schedule: Q01DX005 (ip), vehicle: Klucel (hydroxypropylcellulose) (HPC)) was 100 % of control.
With `CCN(CC)C(=O)N(O)C1CCCCC1`, the T/C is 105 % of control under setting [1], 97 % of control under setting [2] and 103 % of control under setting [14].
Consider `Nc1ncnc2c1ccn2COCCO`, for which the T/C is 100 % of control (dose: 50.0 mg/kg/injection, schedule: Q01DX005 (ip), vehicle: distilled water + alcohol); 101 % of control (dose: 100.0 mg/kg/injection, schedule: Q01DX005 (ip), vehicle: distilled water + alcohol); 99 % of control (dose: 200.0 mg/kg/injection, schedule: Q01DX005 (ip), vehicle: distilled water + alcohol).
Consider `COc1ccc(C2OC3=Nc4cc(C)c(C)cc4NC3C2=O)cc1OC` (stereo unspecified), for which the T/C under setting [1] was 101 % of control, the T/C under setting [2] is 101 % of control and the T/C under setting [14] is 99 % of control.
In the case of `O=C1C=CC(=Nc2ccccc2)O1`, the T/C was 100 % of control (dose: 2.5 mg/kg/injection, schedule: Q01DX009 (ip), vehicle: saline with Tween-80); 100 % of control (dose: 5.0 mg/kg/injection, schedule: Q01DX009 (ip), vehicle: saline with Tween-80); 95 % of control (dose: 10.0 mg/kg/injection, schedule: Q01DX009 (ip), vehicle: saline with Tween-80).
Turning to `[N-]=[N+]=Nc1ccnc2ccc(C3CCCCC3)cc12`, the T/C is, setting by setting: under setting [1], 100 % of control; under setting [2], 92 % of control; under setting [14], 100 % of control.
Turning to `CCCCCCCCCCCCCCCCSC1=CC(=O)C(OC)=C(OC)C1=O`, the T/C was 97 % of control (dose: 2.0 mg/kg/injection, schedule: Q01DX009 (ip), vehicle: Klucel (hydroxypropylcellulose) (HPC)); 98 % of control (dose: 8.0 mg/kg/injection, schedule: Q01DX009 (ip), vehicle: Klucel (hydroxypropylcellulose) (HPC)); 100 % of control (dose: 16.0 mg/kg/injection, schedule: Q01DX009 (ip), vehicle: Klucel (hydroxypropylcellulose) (HPC)); 105 % of control (dose: 32.0 mg/kg/injection, schedule: Q01DX009 (ip), vehicle: Klucel (hydroxypropylcellulose) (HPC)).
Consider `CCOC(=O)NN(C(=O)OCC)C1CCN=C1C(=O)OC` (stereo unspecified), for which the T/C is, setting by setting: (dose: 50.0 mg/kg/injection, schedule: Q01DX005 (ip), vehicle: saline) 98 % of control; (dose: 100.0 mg/kg/injection, schedule: Q01DX005 (ip), vehicle: saline) 88 % of control; (dose: 200.0 mg/kg/injection, schedule: Q01DX005 (ip), vehicle: saline) 98 % of control.
In the case of `Fc1ccnc(F)n1`, the T/C is 100 % of control (dose: 25.0 mg/kg/injection, schedule: Q04DX003 (ip), vehicle: water) and 104 % of control (dose: 50.0 mg/kg/injection, schedule: Q04DX003 (ip), vehicle: water).
For `COc1cc(CO)c(I)c(OC)c1OC`, the T/C under setting [12] was 99 % of control and the T/C under setting [13] was 97 % of control.
Consider `CC(C)(O)CCC(=O)[C@](C)(O)[C@H]1[C@H](O)C[C@@]2(C)[C@@H]3CC=C4[C@@H](C[C@@H](O)[C@@H](O)C4(C)C)[C@]3(C)C(=O)C[C@]12C`, for which the T/C is 100 % of control (dose: 1.25 mg/kg/injection, schedule: Q01DX005 (ip), vehicle: saline with Tween-80); 97 % of control (dose: 2.5 mg/kg/injection, schedule: Q01DX005 (ip), vehicle: saline with Tween-80); 95 % of control (dose: 5.0 mg/kg/injection, schedule: Q01DX005 (ip), vehicle: saline with Tween-80); 104 % of control (dose: 10.0 mg/kg/injection, schedule: Q01DX005 (ip), vehicle: saline with Tween-80).
